Measured values published in patent US20250214960A1, “COMPOUNDS HAVING ACTIVITY OF DEGRADING GSPT1 AND APPLICATION THEREOF” (SHANGHAI MEIZER PHARMACEUTICALS CO., LTD., priority 2021, published 2025).
pIC50: −log10 of the molar value. Like-named read-outs stand apart in the source and are kept apart here.

Key:
Jeko-1 cells = test: CCK8 method, inhibition of Jeko-1 cell proliferation; format: cell-based; details: Homo sapiens; Jeko-1, 72 hours; read-out: Cellular proliferation inhibition IC50
Experimental: Test Example 3: CCK8 Method for Detecting Inhibition of Jeko-1 Cell Proliferation by Compound of Formula
Cell culture: The Jeko-1 cell line (human lymphoma cells) was cultured in RPMI-1640 complete medium containing […] and 1% penicillin streptomycin, and incubated in an incubator at 37° C., 5% CO2, and saturated humidity.
Cell laying: Jeko-1 cells in logarithmic growth phase was taken, centrifuged, and an appropriate amount of complete culture medium was added to obtain a single-cell suspension, a hemocytometer was used for cell counting, and a cell suspension of 1.5×10^5 cells/mL was prepared, the cells were inoculated into a 96 well culture plate at a rate of 100 μL cell suspension per well and incubated in a CO2 cell incubator for 24 hours.
CCK-8 detection: 72 hours after administration, 10% CCK-8 solution was added to each well, placed in a CO2 cell culture incubator, and incubated for 1-4 hours. The absorbance of each well was measured using a microplate reader at 450 nm.
Calculation of cellular proliferation inhibition rate:
Cellular proliferation inhibition rate (%)=[(Ac−As)/(Ac−Ab)]×100% • As: absorbance in experimental wells (including cells, culture medium, CCK-8 solution, and drug solution) • Ac: absorbance in control wells (including cells, culture medium, CCK-8 solution, without drugs) • Ab: absorbance in blank wells (including culture medium, CCK-8 solution, without cells or drugs)

GSPT1 protein = biological target: T1, GSPT1 protein (Homo sapiens, UniProt P15170+Q96SW2); test: Western blot detection of degradation activity of GSPT1 protein in Jeko-1 cells; format: cell-based; details: JeKo-1, 24 h, read-out: GSPT1 degradation rate (%)
T1 construct: endogenous in cells; host or cells: Jeko-1
Procedure, shortened: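 Jeko-1 cells in RPMI1640 with 20% FBS treated with compound or DMSO for 24 h at 37° C. GSPT1 detected in lysates by Western blot with GAPDH as internal reference. Band intensities quantified by gray-level analysis to calculate GSPT1 degradation rate.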

[1] = tested on: MV-4-11 subcutaneous transplant tumor; test: In vivo efficacy in MV-4-11 subcutaneous transplant tumors; parameters: species or system SCID mice; details: tumor volume on the 27th day
Experimental: Test Example 4: Compound's In Vivo Efficacy in MV-4-11 Subcutaneous Transplant Tumors Experimental method: Human acute monocytic leukemia cell line MV-4-11 was used to construct a subcutaneous transplant tumor model in SCID mice. Grouping: solvent group, reference compound (IV: 2 mg/kg, Day 0-12; IP: 20 mg/kg, Day 13-26) group, 5-17 and 5-22 (IV: 0.5 mg/kg, Day 0-12; IP: 10 mg/kg, Day 13-26), with 5 animals in each group, once a day. The tumor volume on the 27th day was measured and the tumor inhibition rate was calculated. Tumor inhibition rate (%)=[(tumor volume in solvent group−tumor volume in drug group)/tumor volume in solvent group]×100%

HNT-34 cells = test: CTG method, inhibition of HNT-34 cell proliferation; format: cell-based; details: HNT-34, 72 hours; read-out: Cellular proliferation inhibition IC50
Experimental: (§1) Test Example 2: CTG Method for Detecting the Inhibitory Effect of Compounds of Formula on the Proliferation of HNT 34 or HL-60 Cells
(§2) HNT-34 or HL-60 cells were taken and cultured in RPMI1640 medium containing 20% fetal bovine serum. The cells were inoculated on a 96 well plate, with 1×10^4 cells per well, and incubated at 37° C. in a […] incubator. After adding the test compound, it was incubated for 72 hours. Then an appropriate amount of CTG reagent was added, the luminescence value was measured, and the inhibition rate was calculated.

HL-60 cells = test: CTG method, inhibition of HL-60 cell proliferation; format: cell-based; details: Homo sapiens; HL-60, 72 hours; read-out: Cellular proliferation inhibition IC50
Experimental: as §1, §2

[2] = IV 0.5 mg/kg Day 0-12, IP 10 mg/kg Day 13-26, once a day

T1 sequence (P15170 whole entry): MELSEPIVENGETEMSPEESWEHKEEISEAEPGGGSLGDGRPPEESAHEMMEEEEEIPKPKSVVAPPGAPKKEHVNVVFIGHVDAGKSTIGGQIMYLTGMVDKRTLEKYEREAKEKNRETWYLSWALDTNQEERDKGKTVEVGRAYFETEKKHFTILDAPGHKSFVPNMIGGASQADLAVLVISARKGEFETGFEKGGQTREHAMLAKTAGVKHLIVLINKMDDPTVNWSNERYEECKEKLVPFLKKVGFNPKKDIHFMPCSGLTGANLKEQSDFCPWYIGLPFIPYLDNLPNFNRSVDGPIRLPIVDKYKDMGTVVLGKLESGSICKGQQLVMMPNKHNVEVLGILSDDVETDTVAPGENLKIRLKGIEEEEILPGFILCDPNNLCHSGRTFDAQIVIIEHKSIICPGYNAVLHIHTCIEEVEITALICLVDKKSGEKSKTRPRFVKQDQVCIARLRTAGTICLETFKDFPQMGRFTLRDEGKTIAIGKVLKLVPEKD
T1 sequence (Q96SW2 whole entry): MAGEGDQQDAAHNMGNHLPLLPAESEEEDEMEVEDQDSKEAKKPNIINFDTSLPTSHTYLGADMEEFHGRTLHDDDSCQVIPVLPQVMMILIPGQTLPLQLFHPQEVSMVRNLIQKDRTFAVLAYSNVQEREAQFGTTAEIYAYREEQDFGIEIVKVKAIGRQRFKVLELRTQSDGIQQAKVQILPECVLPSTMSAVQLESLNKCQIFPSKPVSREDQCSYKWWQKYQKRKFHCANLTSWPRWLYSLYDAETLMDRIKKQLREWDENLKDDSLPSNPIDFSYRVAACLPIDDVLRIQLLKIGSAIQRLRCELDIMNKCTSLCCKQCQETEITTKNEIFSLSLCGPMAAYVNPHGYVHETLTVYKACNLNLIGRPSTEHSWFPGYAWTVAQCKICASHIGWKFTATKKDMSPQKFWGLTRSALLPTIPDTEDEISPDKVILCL
T1 sequence (Q16531 whole entry partner): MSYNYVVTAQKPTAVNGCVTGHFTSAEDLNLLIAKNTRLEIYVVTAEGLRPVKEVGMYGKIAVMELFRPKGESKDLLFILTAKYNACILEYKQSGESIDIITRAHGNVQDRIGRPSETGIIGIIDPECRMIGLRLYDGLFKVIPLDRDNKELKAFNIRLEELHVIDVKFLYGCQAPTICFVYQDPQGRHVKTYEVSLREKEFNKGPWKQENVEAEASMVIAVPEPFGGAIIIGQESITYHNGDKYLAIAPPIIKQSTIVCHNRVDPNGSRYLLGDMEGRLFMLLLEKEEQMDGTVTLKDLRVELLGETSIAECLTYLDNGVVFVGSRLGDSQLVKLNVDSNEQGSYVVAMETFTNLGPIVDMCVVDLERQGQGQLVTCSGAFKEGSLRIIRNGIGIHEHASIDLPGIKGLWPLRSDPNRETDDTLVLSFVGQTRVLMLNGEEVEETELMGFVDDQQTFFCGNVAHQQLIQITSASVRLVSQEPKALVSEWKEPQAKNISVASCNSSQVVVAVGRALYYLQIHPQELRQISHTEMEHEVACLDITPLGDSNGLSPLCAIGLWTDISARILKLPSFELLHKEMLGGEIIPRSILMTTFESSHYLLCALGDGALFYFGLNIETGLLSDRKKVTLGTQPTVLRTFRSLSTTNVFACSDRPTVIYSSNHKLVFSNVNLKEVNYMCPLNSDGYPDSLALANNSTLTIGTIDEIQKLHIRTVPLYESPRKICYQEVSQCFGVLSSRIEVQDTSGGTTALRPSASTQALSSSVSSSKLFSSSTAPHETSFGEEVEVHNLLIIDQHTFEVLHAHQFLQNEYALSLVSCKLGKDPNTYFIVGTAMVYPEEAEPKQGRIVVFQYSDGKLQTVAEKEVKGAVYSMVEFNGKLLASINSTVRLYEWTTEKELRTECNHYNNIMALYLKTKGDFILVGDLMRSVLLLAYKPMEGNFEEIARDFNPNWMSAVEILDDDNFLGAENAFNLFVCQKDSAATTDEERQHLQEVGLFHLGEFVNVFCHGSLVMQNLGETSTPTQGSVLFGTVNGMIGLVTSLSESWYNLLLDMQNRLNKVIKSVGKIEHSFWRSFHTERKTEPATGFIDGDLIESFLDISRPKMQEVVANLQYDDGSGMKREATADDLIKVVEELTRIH

| inhibition at 0.1 µM (GSPT1 protein; 100 nM, Jeko-1 cells, 24 hours) [%] | inhibition at 10 µM (GSPT1 protein; 10 μM, Jeko-1 cells, 24 hours) [%] | SMILES | pIC50 (Jeko-1 cells) | inhibition at 0.1 µM (GSPT1 protein) [%] | inhibition at 10 µM (GSPT1 protein) [%] | Tumor inhibition rate (%) [1, 2] [%] | pIC50 (HNT-34 cells) | pIC50 (HL-60 cells) | Tumor inhibition rate (%) ([1]; IV 2 mg/kg Day 0-12, IP 20 mg/kg Day 13-26, once a day) |
| --- | --- | --- | --- | --- | --- | --- | --- | --- | --- |
|  |  | CC(C)OC(=O)N[C@H](Cc1ccccc1)C(=O)NCc1ccc2c(c1)CN(C1CCC(=O)NC1=O)C2=O (stereo partly drawn) [Compound 5-22, Isopropyl ((2R)-1-((2-(2,6-dioxypiperidin-3-yl)-1-oxoisoindolin-5-yl)methyl)amino)-1-oxo-3-phenylprop-2-yl) carbamate] | 9.22 | 77.7 | 95.7 | 99.8 | 7.67 | 7.73 |  |
|  |  | O=C1CCC(N2Cc3cc(CNC(=O)C(F)(F)c4ccc(Cl)cc4)ccc3C2=O)C(=O)N1 (stereo not shown) [Reference compound, reference compound] |  |  |  |  |  |  | 28.3 |
| 94.2 | 95.6 | CC(C)(C)OC(=O)N[C@H](C(=O)NCc1ccc2c(c1)CN(C1CCC(=O)NC1=O)C2=O)c1ccccc1Cl (stereo partly drawn) [Compound 5-17, Tert butyl ((1S)-1-(2-chlorophenyl)-2-((2-(2,6-dioxopyridin-3-yl)-1-oxoisoidoline-5-yl)methyl)amino)-2-oxoethyl) carbamate] | 10.00 |  |  | 99.6 | 8.49 | 8.38 |  |
